Tested on: mixture in equal parts of Salmonella ser. Newport, Salmonella ser. Senftenberg, and Salmonella ser. Typhimurium
Test: Salmonella inhibition in inoculated poultry fat (Examples 2, 4 and 5)
Type: cell-based, Salmonella enterica subsp. enterica
Conditions: 1000 ppm in fat; 1 month after inoculation
Excerpt: Bacterial strains and culture medium Six serovars of Salmonella enterica subsp. enterica were used in these studies: Salmonella ser. Infantis (CIP103549), Salmonella ser. Mbandaka (CIP105859), and Salmonella ser. Senftenberg (isolate from pork/poultry from ANSES collection) for Example 1, Example 3 and Example 6 or Salmonella ser. Newport, Salmonella ser. Senftenberg, and Salmonella ser. Typhimurium (all isolated from pet food) for Example 2, Example 4, and Example 5. All strains were kept in collection at -80° C. in glycerol broth. Bacterial strains were cultured in Brain Heart Infusion agar and subcultured in Brain Heart Infusion broth at 37° C. for 20±2 h (BHI, VWR, USA). Salmonella count in poultry fat was carried out using Xylose Lysine Deoxycholate agar (XLD, VWR, USA) for Example 1, Example 3, and Example 6 or Violet Red Bile Glucose agar (VRBG, BioRad, USA) for Example 2, Example 4 and Example 5. Salmonella detection was done following modified EN ISO 6579-1 in 125 g of poultry fat.
Inoculum preparation Two types of matrix inoculum were used. […]
Antimicrobial efficacy of Compositions 5, 6, 7, 8, 16 was tested when added at 500 ppm in fat and compared to antimicrobial efficacy of phosphoric acid (Composition 1) when added at 1000 ppm in fat. The antimicrobial efficacy of Composition 16 at 1000 ppm in fat was also evaluated. […]

Question: For `O=P(O)(O)O` [Composition 1, Phosphoric acid], which Salmonella detection is on record?
Answer: The Salmonella detection was “still detected”.

Source: patent US20230105082A1, “ANTIMICROBIAL COMPOSITIONS FOR PET FOOD PRODUCTS” (priority 2020, published 2023)
